Assay results reported in PubChem BioAssay (NCI).
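These data come from cells grown in 96-well plates and exposed to compound for 48 hours at five concentrations. Abbreviation: GI50, concentration required for 50% inhibition of growth. TGI is the concentration that stops growth completely.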

Assays:
Test in all cases: NCI anticancer screen, dose series, 48 h
786-0 renal = tested on: 786-0 renal
A498 renal = tested on: A498 renal
A549 NSCLC = tested on: A549 NSCLC
ACHN renal = tested on: ACHN renal
BT-549 breast = tested on: BT-549 breast
CAKI-1 renal = tested on: CAKI-1 renal
CCRF-CEM leukemia = tested on: CCRF-CEM leukemia
COLO 205 colon = tested on: COLO 205 colon
DU-145 prostate = tested on: DU-145 prostate
EKVX NSCLC = tested on: EKVX NSCLC
HCC-2998 colon = tested on: HCC-2998 colon
HCT-116 colon = tested on: HCT-116 colon
HCT-15 colon = tested on: HCT-15 colon
HOP-62 NSCLC = tested on: HOP-62 NSCLC
HOP-92 NSCLC = tested on: HOP-92 NSCLC
HS 578T breast = tested on: HS 578T breast
HT29 colon = tested on: HT29 colon
IGROV1 ovarian = tested on: IGROV1 ovarian
K-562 leukemia = tested on: K-562 leukemia
KM12 colon = tested on: KM12 colon
LOX IMVI melanoma = tested on: LOX IMVI melanoma
M14 melanoma = tested on: M14 melanoma
MALME-3M melanoma = tested on: MALME-3M melanoma
MCF7 breast = tested on: MCF7 breast
MDA-MB-231 breast = tested on: MDA-MB-231 breast
MDA-MB-435 = tested on: MDA-MB-435
MOLT-4 leukemia = tested on: MOLT-4 leukemia
NCI-H226 lung = tested on: NCI-H226 lung
NCI-H23 lung = tested on: NCI-H23 lung
NCI-H460 lung = tested on: NCI-H460 lung
NCI-H522 lung = tested on: NCI-H522 lung
OVCAR-3 ovarian = tested on: OVCAR-3 ovarian
OVCAR-4 ovarian = tested on: OVCAR-4 ovarian
OVCAR-5 ovarian = tested on: OVCAR-5 ovarian
OVCAR-8 ovarian = tested on: OVCAR-8 ovarian
PC-3 prostate = tested on: PC-3 prostate
RPMI-8226 leukemia = tested on: RPMI-8226 leukemia
RXF 393 renal = tested on: RXF 393 renal
SF-268 CNS = tested on: SF-268 CNS
SF-295 CNS = tested on: SF-295 CNS
SF-539 CNS = tested on: SF-539 CNS
SK-MEL-2 melanoma = tested on: SK-MEL-2 melanoma
SK-MEL-28 melanoma = tested on: SK-MEL-28 melanoma
SK-MEL-5 melanoma = tested on: SK-MEL-5 melanoma
SK-OV-3 ovarian = tested on: SK-OV-3 ovarian
SN12C renal = tested on: SN12C renal
SNB-19 CNS = tested on: SNB-19 CNS
SNB-75 CNS = tested on: SNB-75 CNS
SW-620 colon = tested on: SW-620 colon
T-47D breast = tested on: T-47D breast
TK-10 renal = tested on: TK-10 renal
U251 CNS = tested on: U251 CNS
UACC-257 melanoma = tested on: UACC-257 melanoma
UACC-62 melanoma = tested on: UACC-62 melanoma
UO-31 renal = tested on: UO-31 renal
NCI/ADR-RES ovarian = tested on: NCI/ADR-RES ovarian
SR leukemia = tested on: SR leukemia

`Cc1ccc2[nH]c(C(=O)NN3C(=O)C(C)SC34CCCC(C)C4)c(-c3ccccc3)c2c1` (stereo not given) was tested, and the GI50 (786-0 renal) was 58.3 µM, the TGI (786-0 renal) was > 100 µM and the GI50 (A498 renal) was > 100 µM. For the same molecule, the TGI (A498 renal) was > 100 µM, the GI50 (A549 NSCLC) was 30.9 µM and the TGI (A549 NSCLC) was > 100 µM. The GI50 (ACHN renal) was > 100 µM, the TGI (ACHN renal) was > 100 µM and the GI50 (BT-549 breast) was 76.7 µM. For the same molecule, the TGI (BT-549 breast) was > 100 µM, the GI50 (CAKI-1 renal) was 95.5 µM and the TGI (CAKI-1 renal) was > 100 µM. The GI50 (CCRF-CEM leukemia) was 74.1 µM, the TGI (CCRF-CEM leukemia) was > 100 µM and the GI50 (COLO 205 colon) was 94.1 µM. For the same molecule, the TGI (COLO 205 colon) was > 100 µM, the GI50 (DU-145 prostate) was > 100 µM and the TGI (DU-145 prostate) was > 100 µM. For the same molecule, the GI50 (EKVX NSCLC) was > 100 µM, the TGI (EKVX NSCLC) was > 100 µM and the GI50 (HCC-2998 colon) was 76.6 µM. For the same molecule, the TGI (HCC-2998 colon) was > 100 µM, the GI50 (HCT-116 colon) was 75.7 µM and the TGI (HCT-116 colon) was > 100 µM. The GI50 (HCT-15 colon) was 87 µM, the TGI (HCT-15 colon) was > 100 µM and the GI50 (HOP-62 NSCLC) was > 100 µM. The TGI (HOP-62 NSCLC) was > 100 µM, the GI50 (HOP-92 NSCLC) was > 100 µM and the TGI (HOP-92 NSCLC) was > 100 µM. The GI50 (HS 578T breast) was 87.8 µM, the TGI (HS 578T breast) was > 100 µM and the GI50 (HT29 colon) was 33.9 µM. The TGI (HT29 colon) was > 100 µM, the GI50 (IGROV1 ovarian) was 59.1 µM and the TGI (IGROV1 ovarian) was > 100 µM. The GI50 (K-562 leukemia) was 35.1 µM, the TGI (K-562 leukemia) was > 100 µM and the GI50 (KM12 colon) was 65.6 µM. The TGI (KM12 colon) was > 100 µM, the GI50 (LOX IMVI melanoma) was > 100 µM and the TGI (LOX IMVI melanoma) was > 100 µM. For the same molecule, the GI50 (M14 melanoma) was > 100 µM, the TGI (M14 melanoma) was > 100 µM and the GI50 (MALME-3M melanoma) was 69 µM. The TGI (MALME-3M melanoma) was > 100 µM, the GI50 (MCF7 breast) was 32.7 µM and the TGI (MCF7 breast) was > 100 µM. For the same molecule, the GI50 (MDA-MB-231 breast) was > 100 µM, the TGI (MDA-MB-231 breast) was > 100 µM and the GI50 (MDA-MB-435) was > 100 µM. The TGI (MDA-MB-435) was > 100 µM, the GI50 (MOLT-4 leukemia) was 19.3 µM and the TGI (MOLT-4 leukemia) was > 100 µM. For the same molecule, the GI50 (NCI-H226 lung) was > 100 µM, the TGI (NCI-H226 lung) was > 100 µM and the GI50 (NCI-H23 lung) was > 100 µM. The TGI (NCI-H23 lung) was > 100 µM, the GI50 (NCI-H460 lung) was 83.3 µM and the TGI (NCI-H460 lung) was > 100 µM. The GI50 (NCI-H522 lung) was 78 µM, the TGI (NCI-H522 lung) was > 100 µM and the GI50 (OVCAR-3 ovarian) was 97.3 µM. For the same molecule, the TGI (OVCAR-3 ovarian) was > 100 µM, the GI50 (OVCAR-4 ovarian) was 50 µM and the TGI (OVCAR-4 ovarian) was > 100 µM. For the same molecule, the GI50 (OVCAR-5 ovarian) was > 100 µM, the TGI (OVCAR-5 ovarian) was > 100 µM and the GI50 (OVCAR-8 ovarian) was 34.5 µM. The TGI (OVCAR-8 ovarian) was > 100 µM, the GI50 (PC-3 prostate) was 55.1 µM and the TGI (PC-3 prostate) was > 100 µM. For the same molecule, the GI50 (RPMI-8226 leukemia) was 53.1 µM, the TGI (RPMI-8226 leukemia) was > 100 µM and the GI50 (RXF 393 renal) was 17.1 µM. The TGI (RXF 393 renal) was 84.7 µM, the GI50 (SF-268 CNS) was 64.8 µM and the TGI (SF-268 CNS) was > 100 µM. The GI50 (SF-295 CNS) was 68.5 µM, the TGI (SF-295 CNS) was > 100 µM and the GI50 (SF-539 CNS) was > 100 µM. The TGI (SF-539 CNS) was > 100 µM, the GI50 (SK-MEL-2 melanoma) was > 100 µM and the TGI (SK-MEL-2 melanoma) was > 100 µM. The GI50 (SK-MEL-28 melanoma) was > 100 µM, the TGI (SK-MEL-28 melanoma) was > 100 µM and the GI50 (SK-MEL-5 melanoma) was > 100 µM. The TGI (SK-MEL-5 melanoma) was > 100 µM, the GI50 (SK-OV-3 ovarian) was > 100 µM and the TGI (SK-OV-3 ovarian) was > 100 µM. For the same molecule, the GI50 (SN12C renal) was 23.5 µM, the TGI (SN12C renal) was > 100 µM and the GI50 (SNB-19 CNS) was > 100 µM. For the same molecule, the TGI (SNB-19 CNS) was > 100 µM, the GI50 (SNB-75 CNS) was 60.1 µM and the TGI (SNB-75 CNS) was > 100 µM. The GI50 (SW-620 colon) was > 100 µM, the TGI (SW-620 colon) was > 100 µM and the GI50 (T-47D breast) was > 100 µM. The TGI (T-47D breast) was > 100 µM, the GI50 (TK-10 renal) was 89.4 µM and the TGI (TK-10 renal) was > 100 µM. For the same molecule, the GI50 (U251 CNS) was 48.8 µM, the TGI (U251 CNS) was > 100 µM and the GI50 (UACC-257 melanoma) was 66.8 µM. The TGI (UACC-257 melanoma) was > 100 µM, the GI50 (UACC-62 melanoma) was 76.8 µM and the TGI (UACC-62 melanoma) was > 100 µM. The GI50 (UO-31 renal) was > 100 µM and the TGI (UO-31 renal) was > 100 µM.

With `CC(=O)Nc1ccc2[nH]c(C(=O)N3CC(CCl)c4c3cc(N)c3ccccc43)cc2c1` (stereo not given) the TGI (A498 renal) was 0.0554 µM, the TGI (BT-549 breast) was 0.335 µM and the TGI (CAKI-1 renal) was < 0.01 µM. For the same molecule, the TGI (EKVX NSCLC) was 0.0851 µM, the TGI (HCC-2998 colon) was < 0.01 µM and the TGI (HCT-116 colon) was < 0.01 µM. The TGI (HCT-15 colon) was 2.16 µM, the TGI (HOP-62 NSCLC) was < 0.0262 µM and the TGI (HS 578T breast) was < 0.01 µM. For the same molecule, the TGI (HT29 colon) was < 0.0309 µM, the TGI (IGROV1 ovarian) was > 100 µM and the TGI (K-562 leukemia) was > 100 µM. For the same molecule, the TGI (KM12 colon) was 3.48 µM, the TGI (LOX IMVI melanoma) was < 0.0255 µM and the TGI (MCF7 breast) was 2.01 µM. For the same molecule, the TGI (MDA-MB-435) was 0.0767 µM, the TGI (MOLT-4 leukemia) was < 0.0446 µM and the TGI (NCI-H226 lung) was < 0.0238 µM. The TGI (NCI-H460 lung) was 11.6 µM, the TGI (NCI-H522 lung) was < 0.01 µM and the TGI (NCI/ADR-RES ovarian) was 0.0534 µM. The TGI (OVCAR-3 ovarian) was 12.6 µM, the TGI (OVCAR-5 ovarian) was 1.08 µM and the TGI (OVCAR-8 ovarian) was < 0.027 µM. The TGI (SF-268 CNS) was < 0.01 µM, the TGI (SK-MEL-2 melanoma) was < 0.0192 µM and the TGI (SK-MEL-28 melanoma) was 0.0761 µM. The TGI (SK-MEL-5 melanoma) was 0.0267 µM, the TGI (SK-OV-3 ovarian) was 2.18 µM and the TGI (SN12C renal) was 0.0751 µM. The TGI (SNB-19 CNS) was 0.259 µM, the TGI (SR leukemia) was 0.0298 µM and the TGI (SW-620 colon) was > 100 µM. For the same molecule, the TGI (UACC-257 melanoma) was < 0.01 µM and the TGI (UACC-62 melanoma) was < 0.0157 µM.
